# Experiments:
# [1] = molecular target: YlTrm9-Trm112 (full-length) (Yarrowia lipolytica, UniProt Q6C999)
# YlTrm9N19-Trm112 = YlTrm9N19-Trm112 (Yarrowia lipolytica, UniProt Q6C999)
# YlTrm9N38-Trm112 = YlTrm9N38-Trm112 (Yarrowia lipolytica, UniProt Q6C999)
# YlTrm9N38-Trm112, sequence (Q6C999 38-234): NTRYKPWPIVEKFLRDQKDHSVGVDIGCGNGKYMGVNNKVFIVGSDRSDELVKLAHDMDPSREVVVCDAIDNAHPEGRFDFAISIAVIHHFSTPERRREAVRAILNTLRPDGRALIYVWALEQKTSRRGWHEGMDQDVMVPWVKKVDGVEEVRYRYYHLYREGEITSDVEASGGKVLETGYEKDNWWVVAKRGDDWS
# YlTrm9N38-Trm112, sequence (Q6C4P5 1-130 partner): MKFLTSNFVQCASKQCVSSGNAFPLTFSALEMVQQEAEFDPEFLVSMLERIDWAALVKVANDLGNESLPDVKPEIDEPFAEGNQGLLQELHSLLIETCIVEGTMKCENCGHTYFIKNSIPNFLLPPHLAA
# YlTrm9N19-Trm112, sequence (Q6C999 19-234): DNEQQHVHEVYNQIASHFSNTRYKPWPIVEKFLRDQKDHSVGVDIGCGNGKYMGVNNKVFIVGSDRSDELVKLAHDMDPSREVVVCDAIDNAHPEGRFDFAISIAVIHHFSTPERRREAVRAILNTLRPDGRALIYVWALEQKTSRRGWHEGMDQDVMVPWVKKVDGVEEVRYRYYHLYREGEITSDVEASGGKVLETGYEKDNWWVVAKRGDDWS
# YlTrm9N19-Trm112, sequence (Q6C4P5 1-130 partner): as the sequence (Q6C4P5 1-130 partner) above
# YlTrm9-Trm112 (full-length), sequence (Q6C999 1-234): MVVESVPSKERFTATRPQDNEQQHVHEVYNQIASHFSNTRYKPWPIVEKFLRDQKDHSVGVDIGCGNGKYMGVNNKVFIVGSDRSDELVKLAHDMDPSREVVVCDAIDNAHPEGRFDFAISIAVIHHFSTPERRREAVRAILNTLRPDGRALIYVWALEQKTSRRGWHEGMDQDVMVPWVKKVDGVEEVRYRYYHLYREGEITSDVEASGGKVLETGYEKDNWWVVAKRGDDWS
# YlTrm9-Trm112 (full-length), sequence (Q6C4P5 1-130 partner): as the sequence (Q6C4P5 1-130 partner) above
smiles,measurement,setting,value
C[S+](CC[C@H](N)C(=O)O)C[C@H]1O[C@@H](n2cnc3c(N)ncnc32)[C@H](O)[C@@H]1O (stereo partly drawn) [SAM],affinity for SAM,[1],displayed the same affinity for SAM
same,affinity for SAM,YlTrm9N19-Trm112,both truncated forms were strongly affected in their enzymatic activity
same,affinity for SAM,YlTrm9N38-Trm112,displayed the same affinity for SAM
